The NIST ThermoML archive (doi:10.1021/je901079k)
± gives the expanded uncertainty stated by the source.

Assay: xn = mol fraction of the nth substance listed
Conditions: Maximal bubble pressure

F.[F-].[Na+] [sodium hydrogen fluoride] + [F][Al]([F])[F]
Conditions	surface tension liquid-gas [mN/m]
1130.2 K, x1 = 0.6	92.04 ± 2.8
1159.2 K, x1 = 0.6	89.61 ± 2.7
1184.2 K, x1 = 0.6	87.51 ± 2.7
1215.2 K, x1 = 0.6	84.94 ± 2.6
1239.7 K, x1 = 0.6	82.84 ± 2.5
1274.2 K, x1 = 0.6667	105.93 ± 3.2
1297.2 K, x1 = 0.6667	104.59 ± 3.2
1297.2 K, x1 = 0.7143	121.35 ± 3.7
1299.2 K, x1 = 0.75	132.71 ± 4
1318.2 K, x1 = 0.7143	118.25 ± 3.6
1318.2 K, x1 = 0.75	130.09 ± 4
1319.2 K, x1 = 0.6667	103.14 ± 3.1
1329.2 K, x1 = 0.7143	116.62 ± 3.6
1339.2 K, x1 = 0.75	127.18 ± 3.9
1340.2 K, x1 = 0.6667	101.57 ± 3.1
1348.2 K, x1 = 0.7143	113.82 ± 3.5
1368.2 K, x1 = 0.7143	110.87 ± 3.4
1370.2 K, x1 = 0.75	122.89 ± 3.7
